Results as given in US20020042054A1, “Vigilance nucleic acids and related diagnostic, screening and therapeutic methods” (priority 1999, published 2002).
Blank lines part the entries; values can stand above or below the compound they belong to.

How the values were obtained:
Drosophila [1] = type: in vivo, Drosophila melanogaster
Description: In order to monitor fly behavior, five-day old virgin female Canton-S Drosophila melanogaster were cultured at 25° C., 50-60% humidity, 12 hr:12 hr light:dark cycle, on brewer's yeast, dark corn syrup and agar food, following procedures modified from J. Bennett and D. L. van Dyke, Dros. Inform. Serv. 46:160 (1971). Continuous, high-resolution measurement of fly behavior was achieved using an ultrasound activity monitoring system shown in FIG. 1A. Briefly, a 44 kHz standing wave was passed across an independent enclosure containing a single fly. An integrated circuit sampled a portion of each wave as a function of the transmit signal and compared it to the output from the receive signal for the same time-window. When the fly moved its mass within the field, it perturbed the standing wave and the resulting difference was counted as a movement. The output was sampled by a PC at 200 Hz, the data were summed in 2-sec bins and stored for later processing. This system detects very small movements in Drosophila's behavioral repertoire, including fine movements of the head, wings, and limbs.
To monitor rest-activity patterns in large numbers of flies, an infrared Drosophila Activity Monitoring System was used (Trikinetics; described in M. Hamblen et al., J. Neurogen. 3:249 (1986)). To validate the system, flies were visually monitored for a total of 17.75 h (n=7). The number of times the fly crossed the infrared beam was counted in 5-minute bins.
Drugs (caffeine or hydroxyzine) dissolved in food were continuously available to flies beginning in the final hour of the light period.
The increase in rest was not associated with a general impairment of fly behavior. The activity per waking minute was unchanged during the dark period (both during the first hour and the subsequent hours). The total amount of activity during the light period was also unchanged. Furthermore, responsiveness to arousing stimuli was preserved.

Drosophila [2] = test: Responsiveness to arousing stimuli in flies given drug; set-up: species or system Drosophila melanogaster; conditions: in vivo
Description: In order to determine whether periods of rest are associated with increased arousal thresholds, flies were subjected to vibratory stimuli of increasing intensity (0.05 g, 0.1 g, and 6 g). In these experiments, flies were placed in glass tubes (65 mm in length, 5 mm I.D.) maintained on a hard plastic platform above a Grass speaker. The output of the speaker was controlled via a Beckman signal generator and the resulting vibration of the platform was measured with an accelerometer. Each fly received a stimulus each hour (total of 8 stimuli) of constant intensity. The behavioral state at the time of stimulus delivery and the ensuing response were videotaped and scored off-line.

Drosophila [3] = test: Grooming control for validating the infrared system: dusting flies; type: in vivo, Drosophila melanogaster; conditions: flies dusted with the substance
Description: Additional controls were used to validate the infrared system. […] It was determined that food deprivation for 1 day increased waking by 50% in Drosophila.

Compound: Cn1c(=O)c2c(ncn2C)n(C)c1=O [caffeine]
- motor activity (Drosophila [1]; drug in food from the final hour of the light period, n=36/dose): increased
- amount of rest during the dark period (Drosophila [1]; drug in food from the final hour of the light period, n=36/dose, p<0.0001, FIG. 3C): decreased in a dose-dependent fashion

- responsiveness to arousing stimuli (Drosophila [2]): preserved
- total amount of activity during the light period (Drosophila [1]; in vivo): unchanged
Compound: OCCOCCN1CCN(C(c2ccccc2)c2ccc(Cl)cc2)CC1 (centres unmarked) [hydroxyzine]
- rest during the first hour of the dark period (Drosophila [1]; drug in food from the final hour of the light period, n=40/dose, FIG. 3D): increased in a dose-dependent manner
- latency to first dark period rest (Drosophila [1]; drug in food from the final hour of the light period, n=40/dose, FIG. 3E): decreased

Compound: Reactive Yellow
- increase in grooming behavior (Drosophila [3]): 72%
- number of infrared crossings (Drosophila [3]): did not reduce
